The values below come from US4199598A, “Method of treating noradrenaline dysfunction or for dopamine-β-hydroxylase inhibition” (Richter Gedeon Vegyeszeti Gyar Rt., priority 1976, dated 1980).

Data set [1] deals with dopamine-β-hydroxylase. As to conditions: in words, prior art; cited from earlier work.
The next data set can be described thus: in vivo. As to conditions: mouse, ip.
Data set [2] concerns dopamine-β-hydroxylase. The data set can be described thus: Noradrenaline content of heart (dopamine-β-hydroxylase inhibiting effect). The class given is in vivo, male Wister rats. The settings on record: Rattus norvegicus, ip, rats, i.p., 4 hours, ± Standard Error, read-out: Amine level, heart NA (noradrenaline). The procedure:
(§1) The dopamine-β-hydroxylase inhibiting effects of the compounds according to the invention were examined by the following tests:
(§2) The tests were performed on male Wister rats weighing 150 to 200 g. The dopamine-β-hydroxylase inhibiting effects of the compounds were evaluated by determining the change of noradrenaline, dopamine and adrenaline levels of the cerebrum, heart, spleen and adrenal gland. The serotonine and 5-hydroxy-indolyl-acetic acid levels of the cerebrum were also determined. The measurements were performed as follows:
(§3) The animals were decapitated, the cerebrum, heart, spleen and adrenal gland were removed quickly, and the organs were frozen by placing them onto a metal sheet cooled with dry ice. The frozen organs were stored for a maximum of one night at -20° C.
(§4) Determination of the noradrenaline content of heart and spleen
(§5) The organs were weighed in frozen state and then homogenized in 5.0 ml of 0.4 N perchloric acid containing 0.05% of EDTA-Na2 and 0.1% of Na2 S2 O5. The homogenized mixtures were centrifuged as described above for the treatment of adrenal gland, the supernatants were decanted, and the pH was adjusted to 8.0±0.1 with a 0.1 molar tris buffer containing 20 g/l of NaOH and 25 g/l of EDTA-Na2. 100 mg of prepared Al2 O3 (Anton et al: J. Pharm. Ther., Vol. 138, p. 360, 1962) were added to the samples, and the mixtures were shaken mechanically for 20 minutes. Thereafter the Al2 O3 were washed with 2.10 ml of distilled water, and the noradrenaline was eluted with 1.0 ml of 0.05 N perchloric acid. 0.5 ml samples of the eluate were applied for the determination of noradrenaline.
(§6) Noradrenaline was determined according to the method of Shellenberger et al (Anal. Biochem., Vol. 39, p. 356, 1971), with the following modifications of the basic procedure: 0.5 ml of 0.1 molar Na-K-phosphate buffer, containing 9 g/l of EDTA-Na2, were added to 0.5 ml of the eluate, and the catecholamines (noradrenaline in the examination of heart and spleen and noradrenaline and dopamine in the examination of the cerebrum) were oxidized with 0.1 ml of a 0.1 N iodine solution in 5% potassium iodide. […] Thereafter the samples were placed for 5 minutes in a drying oven heated to 100° C., and then the samples were cooled with ice water. The fluorescence of noradrenaline was measured with an OPTON spectrophotometer at wavelengths of 390 nm (excitation) and 490 nm (emission).
(§7) In the tests disulfiram, 2,2-dipyridyl, bis(1-methyl-4-homopiperazinyl-thiocarbonyl)-disulfide, sodium diethyldithiocarbamate and N-phenyl-N'-(2-thiazolyl)-thiourea were used as reference substances. The values indicated in Table 1 are percentages in relation to the amine levels of the controls measured in the same tests (± Standard Error). The statistical calculations were performed on a TPA/i type computer, using Student's test.

Data set [3] concerns dopamine-β-hydroxylase. The data set can be described thus: Noradrenaline, dopamine, serotonine and 5-hydroxy-indolylacetic acid contents of cerebrum (dopamine-β-hydroxylase inhibiting effect). The settings on record: Rattus norvegicus, ip, rats, i.p., 4 hours, ± Standard Error. It is filed as in vivo, male Wister rats. The procedure:
as §1, §2, §3, §6
Determination of the noradrenaline, dopamine, serotonine and 5-hydroxy-indolylacetic acid contents of cerebrum
The brains were homogenized in 10 parts by volume of 0.4 N perchloric acid. The homogenized mixture was stored at -20° C. overnight; thereafter it was thawed and centrifuged as described above. A sample of homogenized mixture corresponding to 0.5 g of brain was removed, the pH of the sample was adjusted to 8.0±0.1 with 0.1 molar tris-buffer of the above composition, and the sample was processed as described above for the determination of the noradrenaline content of heart and spleen, with the difference that 1.5 ml of 0.05 N perchloric acid were applied as eluting agent. 0.5 ml of the eluate were applied to determine the noradrenaline and dopamine content. The measurement was performed as described above, with the difference that samples of 0.5 ml were applied for the recording of the fluorescence of noradrenaline. The residue was placed for 50 minutes into a drying oven heated to 100° C.; thereafter the sample was cooled with ice water, and the fluorescence of dopamine was recorded at wavelengths of 325 nm (excitation) and 380 nm (emission).
In a further test series the serotonine and 5-hydroxy-indolylacetic acid contents were also determined, in addition to the determination of the noradrenaline and dopamine contents, from the same sample. In this instance the brains were homogenized in 10 ml of 75% ethanol, 0.2 ml of EDTA-Na2 and 5% of ascorbic acid were added to the homogenized mixtures, and the homogenized mixtures were maintained at -20° C. overnight. The mixtures were then centrifuged as described above, and 5.0 ml samples of the supernatant were removed. The samples were diluted with equal volumes of distilled water, and poured onto ion-exchange columns of 0.5×1.5 cm dimensions, filled with buffered Amberlite CG-30 (200 to 400 mesh). The columns were washed with 5 ml of distilled water followed with 1.0 ml of 0.2 N hydrochloric acid, and the first effluent and the aqueous wash were collected for the determination of 5-hydroxy-indolylacetic acid. Elution was continued with further 1.2 ml of 0.2 N hydrochloric acid in order to remove noradrenaline, dopamine and serotonine. Samples of 0.3 ml were used for the determinations. […]

The subject of data set [4] is dopamine-β-hydroxylase. The data set can be described thus: Adrenaline content of adrenal gland (dopamine-β-hydroxylase inhibiting effect). It is filed as in vivo, male Wister rats. The settings on record: Rattus norvegicus, ip, rats, i.p., 4 hours, ± Standard Error, read-out: Amine level, adrenal gland AD (adrenaline). As for the experimental part: as §1, §2, §3
Determination of the adrenaline content of adrenal gland
The adrenal glands were freed from fat and homogenized in 3.0 ml of ice-cold 0.4 N perchloric acid. The homogenized mixtures were centrifuged for 10 minutes at 0° C. with a speed of 3200 r.p.m. on a Janetzky K-70 type centrifuge. 0.05 ml samples were taken from the supernatant, and the adrenaline level was determined directly by the method of Laverty et al (Anal. Biochem., Vol. 22, p. 269, 1968).
as §7

Data set [5] relates to dopamine-β-hydroxylase. Description: Noradrenaline content of spleen (dopamine-β-hydroxylase inhibiting effect). The class given is in vivo, male Wister rats. As to conditions: Rattus norvegicus, ip, rats, i.p., 4 hours, ± Standard Error, read-out: Amine level, spleen NA (noradrenaline). The procedure:
as §1, §2, §3, §4, §5, §6, §7

Setting [6] is: read-out: Amine level, cerebrum DA (dopamine).
Setting [7] is: read-out: Amine level, cerebrum NA (noradrenaline).
Where [8] appears, read: read-out: Amine level, cerebrum SE (serotonine).
[9] abbreviates: read-out: Level, cerebrum 5-HIAA (5-hydroxy-indolylacetic acid).

As for `CN1CCCN(C(=S)SSC(=S)N2CCCN(C)CC2)CC1` [FLA-63, bis(1-methyl-4-homopiperazinyl)-thiocarbonyl-disulfide], the “dopamine-β-hydroxylase inhibition in vivo” value with dopamine-β-hydroxylase [1] is reported as “one of the most potent dopamine-β-hydroxylase inhibitors in vivo”.

A word on the LD50: it is the dose expected to kill half of the subjects tested. A higher LD50 goes with lower toxicity. Consider `S=C(S)C1=C(NC2CCCCC2)CCC1` [Compound M-6, 2-(N-cyclohexyl)-amino-cyclopent-1-ene-dithiocarboxylic acid], for which, in “in vivo”, the LD50 was greater than 1000 mg/kg. Further, the response vs control in vivo at 200 mg/kg in the data set with dopamine-β-hydroxylase [2] was 92.7 ± 6.5%; in the data set on dopamine-β-hydroxylase [3] (setting [6]), 107 ± 5.6%; in the data set on dopamine-β-hydroxylase [3] (setting [7]), 40.7 ± 1.1%; in the data set with dopamine-β-hydroxylase [3] (setting [8]), 101 ± 5.1%; with dopamine-β-hydroxylase [3] (setting [9]), 150 ± 8.5%; in the data set with dopamine-β-hydroxylase [4] it was 94.9 ± 3.4%. Further, the response vs control in vivo at 200 mg/kg in the data set with dopamine-β-hydroxylase [5] worked out at 98.1 ± 13.7%.

`S=C(S)C1=C(Nc2ccccc2)CCC1` [Compound M-8, 2-(N-phenyl)-amino-cyclopent-1-ene-dithiocarboxylic acid]: the LD50 in the data set “in vivo” was greater than 1000 mg/kg. In addition, the response vs control in vivo at 200 mg/kg was determined as 99.9 ± 2.9% with dopamine-β-hydroxylase [2]; 97.3 ± 7.1% in the data set on dopamine-β-hydroxylase [3] (setting [6]); 75.6 ± 4.6% with dopamine-β-hydroxylase [3] (setting [7]); 102 ± 7.9% with dopamine-β-hydroxylase [3] (setting [8]); 135 ± 10% with dopamine-β-hydroxylase [3] (setting [9]); 88.4 ± 4.6% in the data set on dopamine-β-hydroxylase [4]. Moreover, the response vs control in vivo at 200 mg/kg in the data set with dopamine-β-hydroxylase [5] was found to be 71.3 ± 12.8%.

As for `NC(CCCNC1=C(C(=S)S)CCC1)C(=O)O` (stereo not drawn) [Compound M-5, 2-[N-(4-carboxy-4-amino)-butyl]-amino-cyclopent-1-ene-dithiocarboxylicacid], the LD50 in “in vivo” was roughly 700 mg/kg. In addition, the response vs control in vivo at 100 mg/kg in the data set on dopamine-β-hydroxylase [2] came out at 98.4 ± 5.4%; in the data set on dopamine-β-hydroxylase [3] (setting [6]), 100 ± 4.8%; with dopamine-β-hydroxylase [3] (setting [7]) it was 81.7 ± 4.5%; in the data set with dopamine-β-hydroxylase [3] (setting [8]), 110 ± 4.1%; with dopamine-β-hydroxylase [4], 69.4 ± 4%; in the data set on dopamine-β-hydroxylase [5], 76.4 ± 11.1%. Further, the response vs control in vivo at 200 mg/kg with dopamine-β-hydroxylase [2] was 75 ± 10.6%; in the data set with dopamine-β-hydroxylase [3] (setting [6]) it was 102 ± 1.8%; in the data set with dopamine-β-hydroxylase [3] (setting [7]), 69.3 ± 2.9%; in the data set on dopamine-β-hydroxylase [3] (setting [8]) it was 114 ± 3.6%; with dopamine-β-hydroxylase [3] (setting [9]) it was 141 ± 10%; in the data set with dopamine-β-hydroxylase [4] it was 70.7 ± 3.3%. Also, the response vs control in vivo at 200 mg/kg in the data set with dopamine-β-hydroxylase [5] worked out at 67.1 ± 6.2%.

`C=CCNC1=C(C(=S)S)CCC1` [Compound M-2, 2-(N-allyl)-amino-cyclopent-1-ene-dithiocarboxylic acid] registered an LD50 in the data set “in vivo” of roughly 500 mg/kg. Also, the response vs control in vivo at 100 mg/kg was found to be 81.3 ± 5.1% in the data set with dopamine-β-hydroxylase [2]; 108 ± 2.9% with dopamine-β-hydroxylase [3] (setting [6]); 78.6 ± 3.3% in the data set on dopamine-β-hydroxylase [3] (setting [7]); 118 ± 5.7% in the data set with dopamine-β-hydroxylase [3] (setting [8]); 103 ± 7.6% in the data set with dopamine-β-hydroxylase [4]; 74.5 ± 10.2% in the data set with dopamine-β-hydroxylase [5]. Besides, the response vs control in vivo at 200 mg/kg turned out to be 123 ± 11.9% with dopamine-β-hydroxylase [2]; 119 ± 7% with dopamine-β-hydroxylase [3] (setting [6]); 71.1 ± 3.9% with dopamine-β-hydroxylase [3] (setting [7]); 109 ± 5.9% in the data set with dopamine-β-hydroxylase [3] (setting [8]); 71.9 ± 4.7% in the data set on dopamine-β-hydroxylase [4]; 89.9 ± 11% in the data set on dopamine-β-hydroxylase [5].

Take `OCCNC1=C(C(=S)S)CCC1` [Compound M-4, 2-(N-hydroxyethyl)-amino-cyclopent-1-ene-dithiocarboxylic acid]: the LD50 in “in vivo” was roughly 800 mg/kg. The response vs control in vivo at 100 mg/kg is 85 ± 9.7% in the data set with dopamine-β-hydroxylase [2]; 110 ± 3.5% in the data set with dopamine-β-hydroxylase [3] (setting [6]); 65.4 ± 4.9% in the data set with dopamine-β-hydroxylase [3] (setting [7]); 110 ± 3.3% with dopamine-β-hydroxylase [3] (setting [8]); 82.7 ± 4.2% with dopamine-β-hydroxylase [4]; 81.4 ± 9.4% in the data set with dopamine-β-hydroxylase [5]. In addition, the response vs control in vivo at 200 mg/kg in the data set with dopamine-β-hydroxylase [2] stood at 75.4 ± 8.3%; in the data set with dopamine-β-hydroxylase [3] (setting [6]) it was 126 ± 2.5%; in the data set on dopamine-β-hydroxylase [3] (setting [7]), 41.6 ± 2%; with dopamine-β-hydroxylase [3] (setting [8]) it was 122 ± 10.5%; in the data set with dopamine-β-hydroxylase [3] (setting [9]) it was 132 ± 12.6%; with dopamine-β-hydroxylase [4], 93.4 ± 7.5%. Moreover, the response vs control in vivo at 200 mg/kg in the data set on dopamine-β-hydroxylase [5] turned out to be 98.4 ± 17.1%.

For the molecule `NC(CCCCNC1=C(C(=S)S)CCC1)C(=O)O` (stereo not drawn) [Compound M-7, 2-[N-(5-carboxy-5-amino)-pentyl]-amino-cyclopent-1-ene-dithiocarboxylic ac id], in “in vivo”, the LD50 was roughly 900 mg/kg. Besides, the response vs control in vivo at 200 mg/kg in the data set on dopamine-β-hydroxylase [2] was 95.6 ± 8.5%; in the data set on dopamine-β-hydroxylase [3] (setting [6]) it was 106 ± 7.2%; with dopamine-β-hydroxylase [3] (setting [7]), 65.8 ± 3%; in the data set on dopamine-β-hydroxylase [3] (setting [8]), 99.7 ± 6.8%; in the data set with dopamine-β-hydroxylase [3] (setting [9]), 153 ± 13%; in the data set with dopamine-β-hydroxylase [4], 79.5 ± 6.5%. Moreover, the response vs control in vivo at 200 mg/kg in the data set on dopamine-β-hydroxylase [5] stood at 85.3 ± 17.7%.
